Read-outs that look alike come from different tables or passages of the source.
Tests used:
NCI-H460 = assay: Antiproliferative (cytotoxicity) test, sulforhodamine B, NCI-H460 cells; assay type: cell-based, human
From the text: The cytotoxic activity of the compounds according to the present invention has been assayed in cell systems of human tumour cells, using the antiproliferative activity test as the method of evaluating the cytotoxic potential.
The cell line used is a non-microcytoma pulmonary adenocarcinoma called NCI H460, belonging to the NSCLC (non small cell lung cancer) class.
To evaluate the effect of the compounds according to the present invention, their cytotoxocity against the non-microcytoma lung cancer cell line (NCI-H460) was evaluated. Cells from the American Type Culture Collection (ATCC) were maintained in culture in RPMI 1640 (GIBCO) containing 10% foetal calf serum and gentamicin sulphate at a concentration of 50 µg/ml.
The cells were seeded in a volume of 250 μl in 96-well plates and incubated for 24 h at 37° C. The next day the study compounds were added at scalar concentrations from 1 μM to 0.004 μM, and the cells were incubated for another 2 h at 37° C. in a humidified atmosphere containing 5% CO2. The cells were washed 3 times, overturning the plates each time and adding PBS. 200 μl/well of RPMI 1640 medium containing 10% FCS were added and the plates were incubated at 37° C. for a further 72 h. On day 5, the growth medium was removed by overturning the plates, and 200 μl/well of PBS and 50 μl of 80% cold TCA were added. The plates were then incubated in ice for at least 1 h. The TCA was removed by overturning; the plates were washed 3 times by immersion in distilled water and dried first on blotting paper and then under a hot air jet. 200 μl of 0.4% sulforodamine B in 1% acetic acid were added to all wells. The plates were incubated at room temperature for a further 30 minutes. The sulforodamine B was removed by overturning; the plates were washed by immersion 3 times in 1% acetic acid and then dried first on blotting paper and then with a jet of hot air. 200 μl of Tris base 10 mM were added to all wells and the plates were subjected to stirring for at least 20 minutes. The optical density was measured using a Multiskan spectrophotometer at 540 nm.
Table 1 presents the IC50 values, that is to say the concentration capable of inhibiting 50% of cell survival, for each compound examined, processed using ALLFIT software.

[1] = 2 h exposure, 72 h recovery, sulforodamine B, concentration inhibiting 50% of cell survival, read-out: NCI-H460 IC50

SMILES	IC50 (NCI-H460; [1]) [nM]	other results
CCC1(CC(=O)O)OC(=O)c2c1cc1n(c2=O)Cc2c-1nc1ccccc1c2/C=N/OC(C)(C)C (centres unmarked) [ST2196, {10-[(E)-(ter-butoxyimino)methyl]-3-ethyl-1,13-dioxo-11,13-dihydro-1H,3H-furo[3′,4′:6.7]indolizino[1,2-b]quinolin-3-yl} acetic acid]	> 1000	–
CCC1(O)CC(=O)OCc2c1cc1n(c2=O)Cc2c-1nc1ccccc1c2/C=N/OCc1ccccc1 (centres unmarked) [ST2143, R,S-7-benzyloxyiminomethyl-homocamptothecin]	7	–
CCC1(CC(=O)O)OC(=O)c2c1cc1n(c2=O)Cc2cc3ccccc3nc2-1 (centres unmarked) [ST2085, (3-ethyl-1,13-dioxo-11,13-dihydro-1H,3H-furor[3′,4′:6,7]indolizino[1,2-b]quinolin-3-yl)acetic acid]	> 1000	–
CCC1(O)CC(=O)OCc2c1cc1n(c2=O)Cc2c-1nc1ccccc1c2C=NOC(C)(C)C (centres unmarked) [ST2523]	–	IC50 (NCI-H460; H460 cells, isolated enantiomers of ST2127, read-out: IC50 (H460)): > 200 nM
CCC1(CC(=O)OC(C)(C)C)OC(=O)c2c1cc1n(c2=O)Cc2cc3ccccc3nc2-1 (centres unmarked) [ST2084, Ter-butyl ester of (3-ethyl-1,13-dioxo-11,13-dihydro-1H,3H-furo[3′,4′:6,7]indolizino[1,2-b]quinolin-3-yl)acetic acid]	> 1000	–
CCC1(O)CC(=O)OCc2c1cc1n(c2=O)Cc2c-1nc1ccccc1c2C=NOC(C)(C)C (centres unmarked) [ST2127, R,S-7-(1-t-butoxy)iminomethyl-homocamptothecin]	26	–
CCC1(CC(=O)O)OC(=O)c2c1cc1n(c2=O)Cc2c-1nc1ccccc1c2/C=N/OCc1ccccc1 (centres unmarked) [ST2285, (10-{(E)-[(benzyloxy)imino]methyl}-3-ethyl-1,13-dioxo-11,13-dihydro-1H,3H-furo[3′,4′:6,7]indolizino[1,2-b]quinolin-3-yl)-acetic acid]	–	IC50 (NCI-H460; Homo sapiens, NCI-H460, 2 h exposure, 72 h recovery, sulforodamine B, concentration inhibiting 50% of cell survival, read-out: NCI-H460 IC50): > 1000 nM; melting point: 188 °C (dec.)
